Columns and labels:
MRSA N315 [1] = assay: MIC assay and FICI synergy determination (checkerboard); type: cell-based, Staphylococcus aureus; details: for MIC: Staphylococcus aureus, MRSA, read-out: MIC in MRSA N315
Experimental: (§1) Microbiological Studies: MRSA N315 was a gift from Dr. Steven Gill, University of Rochester, Rochester, NY, USA. S. aureus ATCC 29213 was acquired from the American Type Culture Collection. De-identified clinical MRSA isolates were selected at random from the clinical isolate strain bank at Barnes-Jewish Hospital, St. Louis, MO, USA. Minimal inhibitory concentration (MIC) assays for inhibition of growth were performed following the recommendations of the Clinical and Laboratory Standards Institute (CLSI)^43. Briefly, 23 antibacterial compounds (Supplemental Table 1) were selected based on coverage of all major drug classes, including three compounds not classified as antibiotics for human use, but with known antibacterial properties. Compounds were dissolved in dimethyl sulfoxide (DMSO) to a stock concentration of 50 mg/ml. Exceptions: Sulfometuron at 20 mg/ml in DMSO; Tobramycin, D-cycloserine, and colistin at 50 mg/ml in H2O and filtered at 2 μm. The 23 compounds were formulated into all 253 possible unique pairwise combinations at fixed ratios and at 100× concentrations in solvent. To increase the range of concentrations assayed for possible synergistic or antagonistic drug interactions (>2,000-fold), the drug stocks were arrayed into threefold dilution series down eight rows in 96-well Costar master drug plates, using a BioMek FX robotic liquid handler (Beckman Coulter, Inc.). Drugs were then mixed 1:100 into 96-well plates containing 200 μl/well of cation-adjusted Mueller-Hinton broth (CAMHB). All drug susceptibility assay wells were inoculated with ˜1 μl of mid-log phase bacterial culture at 0.5 McFarland standard (˜2×10^8 CFU/ml) and grown at 37° C. for 24 h. Endpoint growth at 37° C. after 24 h was determined by optical density at 600 nm ≥0.1 using a Synergy H1 reader (BioTek, Inc.).
Synergy of antibiotic combinations was determined using the fractional inhibitory concentration index (FICI) method ^57,58. By this method, the MIC of the antibiotic compound in combination is divided by the MIC of the compound alone, yielding the fractional contribution of each drug component in the combination. Quotients for all in a combination are summed and drug interactions scored using the formula: FICI=(MIC Acomb A B C)/MICagent A+(MIC Bcomb A B C)/MICagent B+(MIC Ccomb A B C)/MICagentC Select pairwise combinations against MRSA were then combined with each of the 21 remaining single drugs to make triple combinations, formulated and tested in identical fashion to the double combinations. Synergy of combinations was confirmed via triplicate measurements of drug conditions at the MIC. Based on its high synergy against MRSA N315 in the sparse screening, ME/PI/TZ and its constituents were selected for further characterization. Final susceptibility testing of ME/PI/TZ and its components was performed using twofold dilution from 128 to 2 μg/ml for each component

MRSA N315 [2] = assay: Adaptation and cross-resistance assays (11-day passage); type: cell-based, Staphylococcus aureus
Experimental: Adaptation and Cross-resistance Assays: 414 MRSA N315 was grown in 150 μl/well of CAMHB with constant shaking at 37° C. and passaged over 11 days in identical 96-well plates containing replicate threefold dilutions of ME/PI/TZ, ME/PI, ME/TZ, PI/TZ, ME, PI, and TZ. Top concentrations of drug combinations were 33.3 μg/ml for each component, while top concentrations for single drugs was 100 μg/ml. To test for cell viability, at the end of the assay on day 11, all wells from the plate were pinned with a sterile 96-pin replicator and transferred to CAMHB only. After passage, plates were filled 1:1 with 30% CAMHB/glycerol and frozen at −80° C. for later analysis.
Growth rate of isolates over passages in each condition was determined by linear best-fit of logarithm-converted exponential growth phase. […] Adapted isolates were retrospectively chosen from each combination or single compound in wells showing an increase in MIC or growth rate, frozen isolates were streaked out on agar plates to obtain single colonies, re-grown in broth conditions identical to those in which they grew originally, and then re-inoculated in sterile 96-well plates identical to the original 11-day 431 plates.

MRSA N315 [3] = assay: In vitro MICs and FICI for MRSA N315 after passage in vivo; type: cell-based, Staphylococcus aureus
From the text: We tested MRSA N315 cultures from blood drawn from mice treated with meropenem, piperacillin, or vehicle for their in vitro MICs against ME/PI/TZ and its constituent single drugs to determine whether adaptation occurred during passage in vivo. All four tested isolates of MRSA N315 had identical MICs for the triple ME/PI/TZ and all constituent drugs, and thus identical synergy (Table 6B).
as §1
(§2) Bacterial isolation from blood. Blood samples were checked for bacterial growth by plating and liquid culture. Whole blood (100 μl, three samples per group) was spread onto Brain-Heart Infusion (BHI) agar plates and incubated at 36° C. overnight. Colonies were counted and three colonies were selected, grown overnight in liquid BHI culture at 36° C., then mixed 1:1 with 30% LB-glycerol and stored at −80° C. The remaining three blood samples of each group (50 μl) was added to 5 ml BHI broth and incubated overnight at 36° C. When growth was noted, cultures were mixed 1:1 with 30% LB-glycerol and stored at −80° C.

mecA = assay: Expression profiling with qRT-PCR; type: cell-based, Staphylococcus aureus; details: wild-type MRSA N315, relative to gyrB
Experimental: Expression profiling with qRT-PCR: Wild-type and adapted MRSA N315 isolates were grown in triplicate in 100 ml flasks to mid-log phase in CAMHB +/−piperacillin at 11.1 μg/ml or tazobactam at 33.3 μg/ml. To harvest cells at mid-log phase, each culture flask was split into 2×50 ml screw-cap tubes, spun down at 4° C. for 10 min at 3500 rpm, supernatant removed, and pellets combined carefully with a 2 ml serological pipette. 1 ml RNAprotect Bacteria Reagent (Qiagen, Valencia, CA, USA) was added to pellets to stabilize the RNA, vortexed briefly, and incubated for 5 min at RT. After incubation, tubes were spun again at 4° C. for 10 min at 3500 rpm, supernatant removed, and the pellets were stored at −80° C. […]
CFX protocol: 2 min@50° C., 2 min@95° C., (15 s@95° C., 1 min@60° C.)×40 cycles. Gene expression was determined using the ΔΔCt method of normalized quantitation 60, where Ct indicates the cycle number at which exponential growth phase increases above threshold fluorescence signal.

MRSA N315 [4] = assay: Neutropenic mouse peritonitis model of MRSA infection; type: in vivo, mice; details: for Result (Alive/Dead) / Result (survivors per group): 6 doses; for Result (Alive/Dead): one line per mouse; for Result (survivors per group): six days post-infection
From the text: In vivo mouse model of MRSA infection: Animals. Outbred ICR female mice (6-8 weeks old, 17-25 g body weight; Harlan Laboratories, Inc., Indianapolis, IN, USA) were used. Mice were given Teklad 2019 Extruded Rodent Diet (Harlan Laboratories, Inc., Indianapolis, IN, USA) and water ad libitum. Mice were maintained in polycarbonate shoebox cages containing corncob (The Andersons, Inc., Maumee, OH, USA) and Alpha-dri (Shepherd Specialty Papers, Inc., Richland, MI, USA) bedding under 12-h light/12-h dark cycle at 22±1° C. All procedures involving animals were approved by the University of Notre Dame Institutional Animal Care and Use Committee.
Neutropenic mouse peritonitis model of MRSA infection. Doses of cyclophosphamide (100 μl of 50 mg/ml in 0.9% saline corresponding to 200 mg/kg; Alfa Aesar, Ward Hill, MA, USA) were given intraperitoneally (IP) at 4 days and 1 day prior to infection. The S. strain N315 was streaked onto Brain-Heart Infusion (BHI; Becton Dickson and Company, Sparks, MD, USA) agar and grown overnight at 36° C. The MRSA N315 bacterial inoculum was adjusted to approximately 1×10^8 CFU/ml (corresponding to OD540=0.5), then diluted to give 2×10^7CFU/ml. A 10% porcine mucin (Sigma-Aldrich, St. Louis, MO, USA) suspension was prepared and adjusted to pH 7. Immediately prior to infection, the bacterial inocula were diluted 1:1 with 10% mucin to a final concentration of 1×10^7CFU/ml in 5% mucin. The mice were then infected IP with 0.5 ml of this inoculum. In vivo dosing of compounds in mice was compared with mean or range peak human plasma concentrations of studied β-lactams^44,46,47,62,63.
Antibiotic preparation. Meropenem was obtained from AK Scientific, Inc. (Union City, CA, USA), piperacillin and tazobactam were obtained from Sigma-Aldrich Co. (St. Louis, MO, USA). Linezolid (CAS 165800-03-3) was obtained from AmplaChem (Carmel, IN, USA). Antibiotics were dissolved at a concentration of 16.67 mg/ml in 30% DMSO/30% propylene glycol/40% water. Linezolid was used as positive control and was prepared at 7.5 mg/ml. Vehicle (30% DMSO/30% propylene glycol/40% water) was included as negative control. The dosing formulations were sterilized by passing through 0.2 μm filter prior to injection.
as §2
Statistical Analyses: Data for minimal inhibitory concentrations (MICs) are derived from triplicate measurements. Adaptation data are taken from two replicate experiments for each drug combination condition. Data for qRT-PCR expression profiling are derived from three replicate experiments taken from three biological replicates each, with standard error of measurement calculated. Mice were treated in groups of six, and growth determination of bacteria determined via plate and broth culture in triplicate. Fisher's Exact test with Bonferroni correction was used for 8 independent tests (comparing each treatment to 610 vehicle).

[5] = 67 mg/kg (of each) every 8 hrs SC

CCC[C@@H]1C[C@@H](C(=O)N[C@@H]([C@H]2O[C@H](SC)[C@H](O)[C@@H](O)[C@H]2O)[C@H](C)Cl)N(C)C1 [Clindamycin]
MIC (MRSA N315 [1]; single compounds): > 500 µg/mL

CC[C@H]1OC(=O)[C@H](C)[C@@H](O[C@H]2C[C@@](C)(OC)[C@@H](O)[C@H](C)O2)[C@H](C)[C@@H](O[C@@H]2O[C@H](C)C[C@H](N(C)C)[C@H]2O)[C@](C)(O)C[C@@H](C)CN(C)[C@H](C)[C@@H](O)[C@]1(C)O [Azithromycin]
MIC (MRSA N315 [1]; single compounds): > 200 µg/mL

CC1(C)S[C@@H]2[C@H](NC(=O)[C@H](N)c3ccc(O)cc3)C(=O)N2[C@H]1C(=O)O [amoxicillin]
collateral effect on susceptibility (MRSA N315 [2]; MRSA N315 after prior exposure/adaptation to meropenem): sensitizing

COc1cc(Cc2cnc(N)nc2N)cc(OC)c1OC [Trimethoprim]
MIC (MRSA N315 [1]; single compounds): 6.2 µg/mL

NC[C@H]1O[C@H](O[C@H]2[C@H](O)[C@@H](O[C@H]3O[C@H](CO)[C@@H](O)[C@H](N)[C@H]3O)[C@H](N)C[C@@H]2N)[C@H](N)C[C@@H]1O [Tobramycin]
MIC (MRSA N315 [1]; single compounds): > 500 µg/mL

C[C@H]1COc2c(N3CCN(C)CC3)c(F)cc3c(=O)c(C(=O)O)cn1c23 [Levofloxacin]
MIC (MRSA N315 [1]; single compounds): 0.4 µg/mL

CCN(CC)C(=S)SSC(=S)N(CC)CC [Disulfiram]
MIC (MRSA N315 [1]): 11.1 µg/mL

CN[C@H](CC(C)C)C(=O)N[C@H]1C(=O)N[C@@H](CC(N)=O)C(=O)N[C@H]2C(=O)N[C@H]3C(=O)N[C@H](C(=O)N[C@H](C(=O)O)c4cc(O)cc(O)c4-c4cc3ccc4O)[C@H](O)c3ccc(c(Cl)c3)Oc3cc2cc(c3O[C@@H]2O[C@H](CO)[C@@H](O)[C@H](O)[C@H]2O[C@H]2C[C@](C)(N)[C@H](O)[C@H](C)O2)Oc2ccc(cc2Cl)[C@H]1O [Vancomycin]
MIC (MRSA N315 [1]): 0.4 µg/mL

Colistin
MIC in MRSA N315 (MRSA N315 [1]; single compounds): 500 µg/mL

C[C@H]1[C@H](NC(=O)/C(=N\OC(C)(C)C(=O)O)c2csc(N)n2)C(=O)N1S(=O)(=O)O [Aztreonam]
MIC (MRSA N315 [1]; single compounds): > 500 µg/mL

CO[C@H]1/C=C/O[C@@]2(C)Oc3c(C)c(O)c4c(O)c(c(/C=N/N5CCN(C)CC5)c(O)c4c3C2=O)NC(=O)/C(C)=C\C=C\[C@H](C)[C@H](O)[C@@H](C)[C@@H](O)[C@@H](C)[C@H](OC(C)=O)[C@@H]1C [Rifampin]
MIC (MRSA N315 [1]; single compounds): 0.4 µg/mL

CN(C)c1cc(NC(=O)CNC(C)(C)C)c(O)c2c1C[C@H]1C[C@H]3[C@H](N(C)C)C(O)=C(C(N)=O)C(=O)[C@@]3(O)C(O)=C1C2=O [Tigecycline]
MIC (MRSA N315 [1]): 0.4 µg/mL

Bleomycin
MIC in MRSA N315 (MRSA N315 [1]; single compounds): >500 µg/mL

Cc1ccc(C)c(OCCCC(C)(C)C(=O)O)c1 [Gemfibrozil]
MIC (MRSA N315 [1]; single compounds): > 200 µg/mL

N[C@@H]1CONC1=O [D-Cycloserine]
MIC in MRSA N315 (MRSA N315 [1]; single compounds): 56 µg/mL

Cc1cc(NS(=O)(=O)c2ccc(N)cc2)no1 [Sulfamethoxazole]
MIC (MRSA N315 [1]; single compounds): 100 µg/mL

C[C@]1(Cn2ccnn2)[C@H](C(=O)O)N2C(=O)C[C@H]2S1(=O)=O [Tazobactam]
collateral effect on susceptibility (MRSA N315 [2]; MRSA N315 after exposure to any other single or double compounds): no collateral sensitivity
MIC (MRSA N315 [3]; Staphylococcus aureus, MRSA): 100 µg/mL
MIC (MRSA N315 [3]; Wild-type N315): 100 µg/mL
MIC (MRSA N315 [3]; colonies from mice given PI): 100 µg/mL
MIC (MRSA N315 [3]; colonies from mice given Vehicle): 100 µg/mL
induction of mecA expression (mecA): strong inducer of mecA
MIC (MRSA N315 [1]; single compounds): 128 µg/mL
Result (Alive/Dead) (MRSA N315 [4]; [5]): Dead
Result (survivors per group) (MRSA N315 [4]; [5]): 0/6
mice that succumbed to the infection (MRSA N315 [4]; most within 48 h, 67 mg/kg (of each)): all mice

O=C(N[C@H](CO)[C@H](O)c1ccc([N+](=O)[O-])cc1)C(Cl)Cl [Chloramphenicol]
MIC (MRSA N315 [1]; single compounds): 11.1 µg/mL

C/C(=C\C(=O)OCCCCCCCCC(=O)O)C[C@@H]1OC[C@H](C[C@@H]2O[C@H]2[C@@H](C)[C@H](C)O)[C@@H](O)[C@H]1O [Mupirocin]
MIC (MRSA N315 [1]; single compounds): 0.4 µg/mL

Cc1cc(C)nc(NC(=O)NS(=O)(=O)c2ccccc2C(=O)O)n1 [Sulfometuron]
MIC (MRSA N315 [1]): > 200 µg/mL

CC(=O)NC[C@H]1CN(c2ccc(N3CCOCC3)c(F)c2)C(=O)O1 [Linezolid]
MIC (MRSA N315 [1]; single compounds): 3.7 µg/mL
bacteria in blood taken at 11 h post-infection (MRSA N315 [4]; 30 mg/kg): zero plated colonies and no growth in liquid cultures
Result (Alive/Dead) (MRSA N315 [4]; 30 mg/kg every 8 hrs SC): Alive
Result (survivors per group) (MRSA N315 [4]; 30 mg/kg every 8 hrs SC): 6/6
survival for six days post-infection (MRSA N315 [4]; 30 mg/kg, n=6/group): All mice
p versus vehicle (Fisher's exact test) (MRSA N315 [4]; survival, n=6/group): 0.02

CO/N=C(\C(=O)N[C@@H]1C(=O)N2C(C(=O)[O-])=C(C[N+]3(C)CCCC3)CS[C@H]12)c1csc(N)n1 [Cefepime]
MIC (MRSA N315 [1]; single compounds): 100 µg/mL

From patent US20230293488A1, “COMPOSITIONS AND METHODS OF USE OF ANTIBACTERIAL DRUG COMBINATIONS” (priority 2015, published 2023)
